Read-outs that look alike come from different tables or passages of the source.
Assays:
[1] = test system: HCV genotype 1b replicon (BM4-5); test: anti-HCV activity in genotype 1b replicon (BM4-5); format: cell-based, hepatitis C virus; settings: for EC50: Hepatitis C virus; for Selectivity Index BM4-5 (1b): genotype 1b replicon; for anti-HCV activity (in words): HCV replication in vitro
[2] = test system: MT-2 cells; test: cytotoxicity in MT-2 cells; settings: MT-2 cells
[3] = test system: HCV genotype 2a replicon (JFH-1); test: anti-HCV activity in genotype 2a replicon (JFH-1); format: cell-based, hepatitis C virus; settings: for EC50: Hepatitis C virus, read-out: EC50 (μM) JFH-1 (2a); for Selectivity Index JFH-1 (2a): genotype 2a replicon
[4] = test system: Huh 7.5 cells; test: cytotoxicity (CC50) in HCV replicon cells / Huh 7.5 liver cells; settings: cytotoxicity in replicon cells
[5] = test system: HIV-1; test: microbe, parasite or virus in culture
[6] = test system: HIV-1; settings: for anti-HIV activity (in words): HIV-1 infected MT-2 cells; for Selectivity Index: MT-2 cells, HIV-1
[7] = molecular target: HIV-1 reverse transcriptase (Human immunodeficiency virus type 1 group M subtype B, UniProt P04585); test: HIV reverse transcriptase assay with primer-template pairs; format: biochemical; settings: HIV-1 reverse transcriptase 50 nM, 37° C., 5 min
Method: (S)-MPMPA diphosphate was prepared as described in Example 56. Radiolabeled [γ-^32P]ATP and cordycepin triphosphate ([α-^32P]3′-deoxyATP) was purchased from PerkinElmer, and unlabeled deoxynucleoside triphosphates (dNTPs) were from Fermentas. RNA oligonucleotides were purchased from Sigma.
Oligonucleotide primer-template pairs were used as substrates for reverse transcriptase assays. Reverse transcriptase assays utilized RNA oligonucleotide templates. The primers were first end-labeled by using [γ-^32P]ATP and T4 polynucleotide kinase prior to annealing to the template strand. Various combinations of dNTPs and (S)-MPMPApp were added. […] After incubation of controls and (S)-MPMPA at 37° C. for 5 min, reaction mixtures were stopped by the addition of gel loading buffer [80% (v/v) formamide, 10 mM EDTA (pH 8.0), 1 mg/ml xylene cyanol FF, 1 mg/ml bromophenol blue]. Reaction products were resolved on 10% polyacrylamide gels and analyzed by phosphorimager analysis as previously described (Magee et al., 2005) using a Typhoon 9400 phosphorimager.).

[8] = test system: HIV-1NL43; test: HIV-1 replication in human peripheral blood mononuclear cells; format: cell-based; settings: for activity against HIV-1 in human PBMCs (in words): HIV-1 infected human PBMCs; for EC50: Human immunodeficiency virus 1, PBMC, HIV-1NL43 in human PBMCs
[9] = cytotoxicity in human PBMCs
[10] = test system: HCMV; test: antiviral activity against HCMV, plaque reduction assay in HFF cells; format: cell-based, human cytomegalovirus; settings: Human betaherpesvirus 5, HFF, read-out: EC50 (μM) HCMV
[11] = test system: Cowpox; test: organism not typed; format: cell-based; settings: read-out: EC50 (μM) Cowpox
[12] = test system: Vaccinia; test: microbe, parasite or virus in culture; format: cell-based; settings: Orthopoxvirus vaccinia
[13] = test system: HSV-1; test: antiviral activity against HSV-1, plaque reduction assay in HFF cells; format: cell-based, herpes simplex virus, type 1; settings: Human alphaherpesvirus 1, HFF, read-out: EC50 (μM) HSV-1
[14] = in vitro; settings: human, HFF fibroblasts
[15] = cytotoxicity (CC50) in HCV replicon cells / Huh 7.5 liver cells; settings: human, Huh 7.5 liver cells
[16] = antiviral activity and cytotoxicity of unmodified MPMPA (system not stated)
[17] = BM4-5, read-out: EC50 (μM) BM4-5(1b)
[18] = Human immunodeficiency virus 1, MT2, MT-2 cells infected with HIV-1
[19] = Human immunodeficiency virus 1, MT2
[20] = BM4-5, read-out: EC50 values, range

SMILES	EC50 [1, 17]	CC50 [2]	EC50 [3]	CC50 [4]	EC50 [5, 18]	anti-HIV activity (in words) [6]	EC50 [5, 19]	other results
CCCCCCCCCCCCCCCCCCOCCOP(=O)(O)CO[C@@H](COC)Cn1cnc2c(N)nc(N)nc21 [Cmpd 24, Octadecyloxyethyl (R)-9-[(3-methoxy-2-phosphonomethoxy)propyl]2,6-diaminopurine]	25.6 ± 4.23 µM	19.7 ± 9.5 µM	25.8 ± 6.1 µM	> 150 µM	–	–	–	–
CCCCCCCCCCCCCCCCOCCCOP(=O)(O)COC(COCC)Cn1cnc2c(N)nc(N)nc21 (racemic) [Cmpd 26, Hexadecyloxypropyl (R,S)-9-[3-ethoxy-2-phosphonomethoxy)propyl-2,6-diaminopurine]	18.2 ± 7.09 µM	30.7 ± 11.7 µM	19.5 ± 1.48 µM	> 150 µM	> 10 µM	large loss of anti-HIV activity	–	Selectivity Index BM4-5 (1b) [1]: >8.2; Selectivity Index JFH-1 (2a) [3]: >7.69
COC[C@H](Cn1cnc2c(N)ncnc21)OCP(=O)(O)OP(=O)(O)OP(=O)(O)O [(S)-MPMPA diphosphate]	–	–	–	–	–	–	–	inhibition of HIV reverse transcriptase activity (in words) [7]: inhibited HIV reverse transcriptase activity by chain termination
CCCCCCCCCCCCCCCCOCCCOP(=O)(O)CO[C@H](COC)Cn1cnc2c(=O)[nH]c(N)nc21 [Cmpd 36]	22 ± 4.97 µM	29.3 ± 3.1 µM	24.8 ± 7 µM	> 150 µM	–	less active	2.03 ± 0.95 µM	activity against HIV-1 in human PBMCs (in words) ([8]; listed as HDP-(S)-MPMPG): active and selective; activity against HIV-1 in human PBMCs (in words) ([8]; listed as hexadecyloxypropyl-(S)-MPMPG): submicromolar activity; CC50 [9]: > 100 µM
CCCCCCCCCCCCCCCCOCCCOP(=O)(O)CO[C@H](COC)Cn1cnc2c(OC)nc(N)nc21 [Cmpd 44, Hexadecyloxypropyl (S)-9-[(3-methoxy-2-phosphonomethoxy)propyl]-6-O-methylguanine]	18.1 ± 0.27 µM	34.3 ± 7.6 µM	17.4 ± 0.3 µM	> 150 µM	–	–	> 10 µM	EC50 [1, 20]: 18 to 26 µM
CCCCCCCCCCCCCCCCCCOCCOP(=O)(O)CO[C@H](COC)Cn1ccc(N)nc1=O [Cmpd 40, Octadecyloxyethyl (S)-1-[(3-methoxy-2-phosphonomethoxy)propyl]cytosine]	> 150 µM	60.7 ± 16 µM	> 150 µM	> 150 µM	–	–	12.7 µM	Selectivity Index [6]: 4.8; anti-HCV activity (in words) [1]: inactive; activity against HIV-1 in human PBMCs (in words) [8]: antiviral activity
CCCCCCCCCCCCCCCCCCOCCOP(=O)(O)CO[C@@H](COC)Cn1cnc2c(=O)[nH]c(N)nc21 [Cmpd 35, Octadecyloxyethyl (R)-9-[(3-methoxy-2-phosphonomethoxy)propyl]guanine]	12.6 µM	44 µM	12.4 µM	> 150 µM	–	–	< 1e-05 µM	Selectivity Index BM4-5 (1b) [1]: >11.9; Selectivity Index JFH-1 (2a) [3]: >12.1
CCCCCCCCCCCCCCCCOCCCOP(=O)(O)CO[C@H](COC)Cn1cnc2c(N)ncnc21 [Cmpd 17]	2.36 µM	32 ± 11 µM	4.64 µM	> 150 µM	–	less active	0.2 ± 0.26 µM	activity against HIV-1 in human PBMCs (in words) [8]: active and selective; EC50 [8]: 0.2 µM; CC50 [9]: > 10 µM
CCCCCCCCCCCCCCCCOCCCOP(=O)(O)COC(COC(C)C)Cn1cnc2c(N)ncnc21 (racemic) [Cmpd 19, hexadecyloxypropyl 9-(R,S)-[3-isopropoxy-2-(phosphonomethoxy)propyl]adenine]	51.2 ± 38.2 µM	30.3 ± 12.5 µM	98.8 ± 20.8 µM	100 ± 20.8 µM	> 10 µM	loss of antiviral activity	–	–
CCCCCCCCCCCCCCCCOCCCOP(=O)(O)CO[C@H](COC)Cn1cnc2c(N)nc(N)nc21 [Cmpd 25]	21.3 ± 3.1 µM	22.7 ± 6.8 µM	23.6 ± 2.7 µM	91.5 ± 17.8 µM	4.6 ± 1.8 µM	less active	–	–
CCCCCCCCCCCCCCCCOCCCOP(=O)(O)COC(COCC)Cn1cnc2c(N)ncnc21 (racemic) [Cmpd 18, hexadecyloxypropyl 9-(R,S)-[3-ethoxy-2-(phosphonomethoxy)propyl]adenine]	7.59 µM	23.6 ± 7.1 µM	8.87 µM	99 ± 0.5 µM	> 10 µM	loss of antiviral activity	–	–
CCCCCCCCCCCCCCCCCCOCCOP(=O)(O)CO[C@H](COC)Cn1cnc2c(=O)[nH]c(N)nc21 [Cmpd 34, Octadecyloxyethyl (S)-9-[(3-methoxy-2-phosphonomethoxy)propyl]guanine]	8.26 µM	25 ± 13 µM	10.7 µM	–	–	–	0.2 µM	Selectivity Index [6]: 125; Selectivity Index BM4-5 (1b) [1]: >18.2; Selectivity Index JFH-1 (2a) [3]: >14.0
CCCCCCCCCCCCCCCCCCOCCOP(=O)(O)CO[C@H](COC)Cn1cnc2c(N)ncnc21 [Cmpd 15, Octadecyloxyethyl (S)-9-[(3-methoxy-2-phosphonomethoxy)propyl]adenine]	1.43 ± 0.38 µM	–	2.38 ± 1.09 µM	> 150 µM	–	potent inhibitory activity	0.03 µM	EC50 [10]: 1.55 ± 0.4 µM; anti-HCV activity (in words) [1]: potent inhibitory activity; EC50 [8]: ~0.005 µM; EC50 [11]: > 20 µM; EC50 ([12]; read-out: EC50 (μM) Vaccinia): 18.3 ± 2.4 µM; EC50 ([12]; read-out: EC50 for vaccinia inhibition): 18.3 µM; CC50 [9]: > 10 µM; EC50 [13]: 45.7 ± 10.1 µM; CC50 [14]: 23.8 ± 2.6 µM; CC50 [15]: > 150 µM
CCCCCCCCCCCCCCCCCCOCCOP(=O)(O)CO[C@H](COC)Cn1cnc2c(N)nc(N)nc21 [Cmpd 23, Octadecyloxyethyl (S)-9-[(3-methoxy-2-phosphonomethoxy)propyl]2,6-diaminopurine]	20.1 ± 1.98 µM	18 ± 5.3 µM	21.4 ± 1.3 µM	99 ± 13.4 µM	0.23 ± 0.15 µM	–	–	–
CCCCCCCCCCCCCCCCCCOCCOP(=O)(O)CO[C@@H](COC)Cn1cnc2c(N)ncnc21 [Cmpd 16, Octadecyloxyethyl (R)-9-[(3-methoxy-2-phosphonomethoxy)propyl]adenine]	4.65 µM	–	5.33 µM	> 150 µM	4.8 ± 3 µM	considerably less active and selective	–	–
COC[C@H](Cn1cnc2c(N)ncnc21)OCP(=O)(O)O [MPMPA, 9-(S)-[3-methoxy-2-(phosphonomethoxy)propyl]adenine]	–	–	–	–	–	–	–	CC50 ([16]; cells not given): 40 µM; EC50 ([16]; virus and cells not stated): 20 µM
CCCCCCCCCCCCCCCCOCCCOP(=O)(O)CO[C@H](COC)Cn1cnc2c(OC)ncnc21 [Cmpd 43, Hexadecyloxypropyl (S)-9-[(3-methoxy-2-phosphonomethoxy)propyl]-6-methoxypurine]	8.9 ± 1.22 µM	22 ± 3.5 µM	12.5 ± 3.36 µM	> 150 µM	–	–	> 10 µM	EC50 [1, 20]: 8.9 to 12.5 µM
CCCCCCCCCCCCCCCCOCCCOP(=O)(O)COC(COCC)Cn1cnc2c(=O)[nH]c(N)nc21 (racemic) [Cmpd 37, Hexadecyloxypropyl (R,S)-9-[3-ethoxy-2-phosphonomethoxy)propyl]guanine]	25.5 ± 10.4 µM	14.9 ± 6.7 µM	13.2 ± 3.45 µM	> 150 µM	> 10 µM	large loss of anti-HIV activity	–	Selectivity Index BM4-5 (1b) [1]: >5.88; Selectivity Index JFH-1 (2a) [3]: >11.4
